Experimental data reported in ChEMBL document CHEMBL5370560, “Isolation of Anti-SARS-CoV-2 Natural Products Extracted from Mentha canadensis and the Semi-synthesis of Antiviral Derivatives” (J Nat Prod, 2023).
≈ marks a conversion by molar mass, not a printed value.

Test system: SARS-CoV-2
Assay: Antiviral activity against SARS-CoV-2 hCoV-19/Egypt/NRC-03/2020 infected in Vero E6 cells assessed as reduction in plaque formation pretreated with cells for 1 hr followed by viral infection for 1 hr with subsequent replacement of compound containing medium and measured after 3 to 4 days by crystal violet staining based analysis
Format: functional, organism-based
Conditions: Severe acute respiratory syndrome coronavirus 2, hCoV-19/Egypt/NRC-03/2020, Vero C1008

## O=C(/C=C/c1ccc(O)c(O)c1)O[C@H](Cc1ccc(O)c(O)c1)C(=O)O [ROSMARINIC ACID]
  IC50: 0.0255 µg/mL (≈ 0.0707 µM)
